Where two headings read alike, the source gives them in different places.
Columns and labels:
[1] = system: C. albicans cap1/cap1 mutant strain, CAC1-1A; assay: Bud-hypha transitions in liquid M199+serum with exogenous cAMP or dbcAMP; format: cell-based, Candida albicans; details: 10 mM
Method: (§1) To determine the effect of exogenous cAMP on bud-hypha transitions and filamenious growth of cap1/cap1 mutants, stationary phase yeasts were induced to form germ tubes and hyphae in liquid M199+serum (10^6 cells/ml) or in SLAD agar plates containing 10 mM cAMP or dbcAMP (Sigma). M199+serum containing cAMP or dbcAMP were incubated at 37° C. for 20 h and the frequency of germ tube formation was measured at various time points. SLAD plates containing cAMP or dbcAMP were incubated at 37° C. for 5 days, and filamentous growth was monitored daily.

[2] = system: C. albicans cap1/cap1 mutant strain, CAC1-1A; assay: Filamentous growth in SLAD agar with exogenous cAMP or dbcAMP; format: cell-based, Candida albicans; details: SLAD media, 10 mM, 37° C.; for colony morphology / filamentous growth of the cap1/cap1 mutant: 5 days
Method: as §1

[3] = system: C. albicans wild type CAP1/CAP1 strain, UnoPP-1; format: cell-based, Candida albicans; details: SLAD media, 10 mM, 37° C.
[4] = system: C. albicans cap1/cap1 pde2/pde2 mutant (BPS18); assay: Filamentation in SLAD agar with or without dbcAMP; format: cell-based, Candida albicans; details: SLAD agar media, 10 mM dbcAMP
Method: Filamentous growth of each strain was induced at 37° C. for 6 days in solid Spider media (a11-15) and 2% agar media containing 4% bovine calf serum (a16-20).
For growth analysis in agar-containing media, stationary-phase yeasts were mixed (200 cells/25 ml of medium) with liquefied agar Spider medium (Liu et al., 266 SCIENCE 1723-1726 (1994)), SLAD (synthetic low ammonium dextrose)(Csank et al., 66 INFECT. IMMUN. 2713-2721 (1998)), and 2% agar containing 4% bovine calf serum (Lo et al., 90 CELL 939-949 (1997).

[5] = system: C. albicans strains with a wild type PDE2 gene (UnoPP-1, BPS1, BPS9); details: YNB, 4 mM and 40 mM cAMP
Method: (§2) C. albicans strains were grown in YNB at 30° C. to middle-logarithmic phase, and then an equal number of cells were subcultured into YNB or YNB containing 4 mM and 40 mM cAMP and grown for 6 to 9 hours. Every hour during incubation, optical density and cell number/ml of cultures were measured by a photoelectric colorimeter (Klett-Summerson, Klett MFG. Co., Inc, NY, N.Y.) and hemacytometer, respectively. The percent of dead cells was determined by staining with 0.1% methylene blue (Sigma, St. Louis, Mo.). Also, cell morphologies were observed by microscopy. After a 6-hour incubation of each strain with YNB containing the indicated amounts of exogenous cAMP, culture samples were serially diluted, spread on YPD plates, and incubated for 2 days to determine the number of colony forming units (CFU). The percent relative growth was calculated by using the following formula: [(CFU of a strain incubated for 6 h in YNB having an indicated concentration of cAMP)/(CFU of the strain incubated for 6 h in YNB only)]×100%.

[6] = system: C. albicans pde2/pde2 mutant (BPS4); details: for relative growth (CFU vs YNB alone) of the pde2/pde2 mutant: 6 h; for doubling time of pde2/pde2 mutants: 30° C.; for swollen pde2/pde2 mutant cells: YNB, 6 hours
Method: as §2

[7] = system: PDE2 mRNA in C. albicans cap1/cap1 mutant; details: cAMP 10 mM, germ tube induction conditions, data not shown

| Structure (SMILES) | hypha formation of the cap1/cap1 mutant in liquid media ([1]; 37° C., 10^6 cells/ml) | pseudohyphae detected in the presence vs absence of dbcAMP ([1]; at 3 h) | timing of onset of filamentous growth of the cap1/cap1 mutant [2] | colony morphology / filamentous growth of the cap1/cap1 mutant [2] | filamentous growth of the wild type strain [3] | filamentation of the cap1/cap1 pde2/pde2 mutant [4] | relative growth rate of strains with a wild type PDE2 gene [5] | relative growth (CFU vs YNB alone) of the pde2/pde2 mutant ([6]; YNB containing 4 mM cAMP) | relative growth (CFU vs YNB alone) of the pde2/pde2 mutant ([6]; YNB containing 40 mM cAMP) [%] | doubling time of pde2/pde2 mutants ([6]; YNB with 4 mM cAMP) [h] | doubling time of pde2/pde2 mutants ([6]; YNB with 40 mM cAMP) [h] | swollen pde2/pde2 mutant cells ([6]; 4 mM cAMP) | swollen pde2/pde2 mutant cells ([6]; 40 mM cAMP) | PDE2 mRNA expression in the cap1/cap1 mutant [7] |
| --- | --- | --- | --- | --- | --- | --- | --- | --- | --- | --- | --- | --- | --- | --- |
| CCCC(=O)Nc1ncnc2c1ncn2[C@@H]1O[C@@H]2COP(=O)(O)O[C@H]2[C@H]1OC(=O)CCC [dbcAMP, dibutyryl cAMP] | enhanced | twice as many pseudohyphae | two | dramatically altered the colony morphology | slightly enhanced | increase filamentation of the cap1/cap1 pde2/pde2 mutant to near wild type levels | – | – | – | – | – | – | – | – |
| Nc1ncnc2c1ncn2[C@@H]1O[C@@H]2COP(=O)(O)O[C@H]2[C@H]1O [cAMP, cyclic AMP] | – | – | two | dramatically altered the colony morphology | slightly enhanced | – | not affected | about 70% | ~40 | 3.7 | 4.8 | ~50 % of cells | greater than 90 % of cells | the same with or without exogenous cAMP |
